Experimental findings from ChEMBL document CHEMBL5032503 (J Med Chem, 2021) are described below.

In assay [1] the target is T1, Nuclear receptor subfamily 2 group E member 1 (Homo sapiens, UniProt Q9Y466). Briefly: Stabilization of human recombinant TLX LBD assessed as change in melting temperature at 500 uM by DSF assay. In general terms: DSF heats the sample and reads unfolding from a dye or from intrinsic fluorescence.
Assay [2] concerns the target T1, Nuclear receptor subfamily 2 group E member 1. Briefly: Agonist activity at in human TLX LBD expressed in human HEK293T cells coexpressing Gal4-VP 16 assessed as fold […] in reporter activity at 100 uM measured after 14 hrs by luciferase reporter gene assay relative to control. The following applies: filed as agonist. It is filed as cell-based. (In a reporter assay the amount or activity of a reporter protein is the signal.)

Assay [3] has the same target. Briefly: Agonist activity at full length TLX activating element expressed in human HEK293T cells coexpressing human full-length TLX/Gal4-VP 16 assessed as fold increase in reporter activity at 100 uM by luciferase reporter gene assay relative to control. It is filed as cell-based. Conditions: filed as agonist.
Assay [4] has the same target. Briefly: Agonist activity at human TLX LBD expressed in human HEK293T cells coexpressing Gal4-VP 16 incubated for 14 hrs at 100 uM. It is filed as cell-based.
Assay [5] has as its system T98G. Briefly: Induction of apoptosis in human T98G cells assessed as viable cells at 100 nM measured after 72 hrs by propidium iodide staining based flow cytometry. It is filed as functional, cell-based. On the technique in general: In flow cytometry, cells or beads pass a laser one at a time.
In assay [6] the target is T1, Nuclear receptor subfamily 2 group E member 1. The assay can be described thus: Agonist activity at human TLX LBD expressed in human HEK293T cells coexpressing Gal4-VP 16 incubated for 14 hrs at 300 uM. It is filed as cell-based.
Assay [7] deals with T98G. The assay can be described thus: Inhibition of cell migration in human T98G cells at 75 uM incubated for 24 hrs by crystal violet staining based by Boyden chamber method. It is filed as functional.
The test system of assay [8] is T98G. The assay can be described thus: Cytotoxicity against human T98G cells assessed as cell viability by WST-1 assay. It is filed as functional, cell-based.
Assay [9] addresses T1, Nuclear receptor subfamily 2 group E member 1. Briefly: Inverse agonist activity at in human TLX LBD expressed in human HEK293T cells coexpressing Gal4-VP 16 assessed as fold increase in reporter activity at 100 uM measured after 14 hrs by luciferase reporter gene assay relative to control. It is filed as cell-based. Conditions: filed as inverse agonist.
Assay [10] shares this target. The assay can be described thus: Inverse agonist activity at full length TLX activating element expressed in human HEK293T cells coexpressing human full-length TLX/Gal4-VP 16 assessed as fold […] in reporter activity at 100 uM by luciferase reporter gene assay relative to control. It is filed as cell-based. The following applies: filed as inverse agonist.
Assay [11] has the same target. The assay can be described thus: Agonist activity at in human TLX LBD expressed in human HEK293T cells coexpressing Gal4-VP 16 assessed as increase in reporter activity measured after 14 hrs by luciferase reporter gene assay relative to control. It is filed as cell-based.
The target is the same in assay [12]. Briefly: Agonist activity at TAE expressed in human HEK293T cells coexpressing human full-length TLX/Gal4-VP 16 assessed as renilla luciferase reporter activity incubated for 14 hrs by Dual-glo luciferase.
The target is the same in assay [13]. Briefly: Agonist activity at in human TLX LBD expressed in human HEK293T cells coexpressing Gal4-VP 16 assessed as remaining activity measured after 14 hrs by luciferase reporter gene assay relative to control. It is filed as cell-based. Conditions: filed as agonist.
Assay [14] has as its system T98G. Briefly: Effect on TLX regulated gene expression in human T98G cells assessed as induction of SIRT1 mRNA expression at 50 uM after 8 hrs by qRT-PCR analysis. It is filed as functional, cell-based.
In assay [15] the test system is T98G. Briefly: Effect on TLX regulated gene expression in human T98G cells assessed as induction of mRNA expression at 50 uM after 8 hrs by qRT-PCR analysis. It is filed as functional, cell-based.
The subject of assay [16] is T98G. Briefly: Effect on TLX regulated gene expression in human T98G cells assessed as decrease in TET3 mRNA expression at 50 uM after 8 hrs by qRT-PCR analysis. It is filed as functional, cell-based.
The test system of assay [17] is T98G. The assay can be described thus: Effect on TLX regulated gene expression in human T98G cells assessed as decrease in PTEN mRNA expression at 50 uM after 8 hrs by qRT-PCR analysis. It is filed as functional, cell-based.
Assay [18] has as its target T1, Nuclear receptor subfamily 2 group E member 1.
Description: Binding affinity to TLX LBD expressed in His6-tagged Escherichia coli Rosetta assessed as binding constant measured after 300 sec at 200 mM by isothermal titration calorimetry
The nature of assay [19]: Effect on Gal4-VP16 plasmid transfected in human HEK293T cells assessed as reporter activity incubated for 14 hrs by luciferase assay. It is filed as functional, HEK-293T.
For assay [20], the target named is T1, Nuclear receptor subfamily 2 group E member 1. The assay can be described thus: Agonist activity at full length TLX activating element expressed in human HEK293T cells coexpressing human full-length TLX/Gal4-VP 16 assessed as decrease in reporter activity at 100 uM by luciferase reporter gene assay relative to control.

The source made the active and inactive calls. The calls are words filed in the database; no cut-off is given here.

T1 sequence (Q9Y466 whole entry, the tested form may be a part): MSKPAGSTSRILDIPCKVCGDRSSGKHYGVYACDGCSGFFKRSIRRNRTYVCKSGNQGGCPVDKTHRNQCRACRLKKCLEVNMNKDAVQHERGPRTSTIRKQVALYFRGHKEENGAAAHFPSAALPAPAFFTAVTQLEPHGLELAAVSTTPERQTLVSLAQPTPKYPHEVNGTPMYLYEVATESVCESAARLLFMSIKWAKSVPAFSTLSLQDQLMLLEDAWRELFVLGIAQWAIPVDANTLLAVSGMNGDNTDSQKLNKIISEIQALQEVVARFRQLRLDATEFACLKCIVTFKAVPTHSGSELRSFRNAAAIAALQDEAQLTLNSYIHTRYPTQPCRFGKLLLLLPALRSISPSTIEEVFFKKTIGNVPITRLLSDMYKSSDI

In general, ΔTm refers to the change in melting temperature against a reference sample. As for `O=C(O)CCCc1ccc(-c2ccccc2)cc1`, in assay [1], the ΔTm was -1.4 °C. Besides, the figures for the fold change (FC) in assay [2] and in [3] were 0.34 and 0.41, respectively.
`OC(COc1cccc2ccccc12)CN1CCCCC1` (centres undefined): the outcome in [4] was inactive.
For `CC(C)NCC(O)COc1ccnc2ccccc12` (centres undefined), the result (in the assay with T98G [5]; in assay [6]) was inactive. Moreover, the “cell migration inhibition (active/not active call)” value in the assay on T98G [7] is “inactive”. In addition, the outcome in the assay with T98G [8] was Active.
Take `Cn1c(=O)[nH]c2[nH]cnc2c1=O`: the fold change (FC) in [9] came out at 3.3; in assay [10], 1.47. Besides, in assay [1] (filed as modulator), the ΔTm amounted to 1.1 °C.
A word on the EC50: it is the concentration at which the effect is half-maximal. For `NCC(O)COc1cccc2ccccc12` (centres undefined), the ΔTm in assay [1] (filed as agonist) amounted to 1.5 °C. Moreover, the fold change (FC) in assay [2] amounted to 0.27; in assay [10] it was 2.3; in assay [13], 0.07. In addition, the values for the EC50 in assay [11] (read-out: EC50) and in assay [12] were 19.4 µM and 43 µM, respectively.
In the case of `CCCCOc1cc(C(=O)NC)c2ccccc2n1`, the ΔTm in [1] came out at 1.1 °C. Also, the values for the fold change (FC) in assay [2] and in assay [3] were 32 and 0.68, respectively.
For `c1ccc2c3c([nH]c2c1)CNCC3` [TRYPTOLINE], the ΔTm in assay [1] (filed as agonist) stood at 1.2 °C. The fold change (FC) was 0.47 in [2], 2.15 in assay [3], 2.2 in assay [10] and 0.4 in assay [13]. For the same molecule, the EC50 in assay [11] (read-out: EC50) was 74 µM; in [12], above 100 µM.
`Nc1cnc2ccccc2n1`: the ΔTm in assay [1] (filed as modulator) was determined as 1.2 °C. The fold change (FC) in assay [2] came out at 2.9; in assay [10] it was 1.8.
As for `CC(C)NCC(O)c1ccc(NS(C)(=O)=O)cc1` (racemic) [SOTALOL], the result with T98G [5] was inactive. For the same molecule, the EC50 result in assay [11] (hek293t) is listed as “Not Active”. For the same molecule, the “cell migration inhibition (active/not active call)” value in the assay with T98G [7] is “inactive”. In the assay with T98G [8], the outcome was Active.
As for `CC(C)OCC(O)COc1cccc2ccccc12` (centres undefined), the EC50 in assay [11] (read-out: EC50) worked out at 83 µM. The fold change (FC) in [13] was determined as 0.29.
For `CC(C)NCCCOc1cccc2ccccc12`, in that order: 50 µM and 0.42.
For `CC(C)NCC(O)COc1ccc(CC(N)=O)cc1` (racemic) [ATENOLOL], the result in the assay on T98G [14], in the assay with T98G [15], with T98G [5], in the assay on T98G [16] and with T98G [17] was inactive. Further, in assay [11] (hek293t), the concentration for a half-maximal effect (EC50) result is given as “Not Active”. Moreover, the “cell migration inhibition (active/not active call)” value in the assay with T98G [7] is “inactive”. Also, the outcome in the assay with T98G [8] was Active.
For `O=c1[nH]nc(Cc2ccccc2)c2ccccc12`, the ΔTm in assay [1] is -0.5 °C. Further, the fold change (FC) is 0.17 in assay [2] and 0.57 in [3].
With `CC(C)NC[C@H](O)COc1cccc2ccccc12` [LEVOPROPRANOLOL], in [11] (read-out: EC50), the EC50 was 72 µM. Also, the fold change (FC) in [13] is 0.25.
Consider `NC1CCc2[nH]c3ccccc3c2C1` (centres undefined), for which the ΔTm in assay [1] (filed as agonist) is 2.4 °C. In addition, the fold change (FC) was found to be 0.45 in assay [2], 1.98 in assay [3], 2.1 in assay [10] and 0.5 in assay [13]. The concentration for a half-maximal effect (EC50) in assay [11] (read-out: EC50) is 67 µM; in [12], above 100 µM.
Take `CCCNCC(O)COc1ccccc1C(=O)CCc1ccccc1` (racemic) [PROPAFENONE]: the EC50 in assay [11] (read-out: EC50) came out at 47 µM. For the same molecule, the fold change (FC) in assay [13] amounted to 0.2.
`CNC(=O)c1cc(Cl)c(N)cc1OC`: the ΔTm in [1] was -0.3 °C. The values for the fold change (FC) in assay [2] and in assay [10] were 0.46 and 1.05, respectively.
As to `Cc1cn(-c2cc(N)cc(C(F)(F)F)c2)cn1`, the ΔTm in [1] was -3.2 °C. Moreover, the figures for the fold change (FC) in assay [2] and in assay [3] were 0.44 and 0.65, respectively.
Turning to `CC(C)N(C)CC(O)COc1cccc2ccccc12` (centres undefined), the EC50 in assay [11] (read-out: EC50) was above 100 µM.
As for `COC(CNC(C)C)COc1cccc2ccccc12` (centres undefined), the EC50 in assay [11] (read-out: EC50) was 52 µM. Further, the fold change (FC) in assay [13] was 0.28.
In the same order, the values of `CC(C)NC[C@@H](O)COc1cccc2ccccc12` [DEXPROPRANOLOL] are 40 µM and 0.4.
For `CC(=O)N1CCN(c2ccc(O)cc2)CC1`, the ΔTm in assay [1] is 0.8 °C. Also, the fold change (FC) in assay [2] was 0.5; in [3], 0.86.
In the case of `CN1CC(=O)N2[C@H](c3ccc4c(c3)OCO4)c3[nH]c4ccccc4c3C[C@@H]2C1=O`, in assay [11] (read-out: EC50), the EC50 turned out to be 5 µM. Moreover, in assay [13], the fold change (FC) is 0.62.
With `COc1ccc2[nH]c(SC)nc2c1`, the fold change (FC) was 2.7 in assay [9], 2.7 in assay [2] and 1.33 in assay [10]. The ΔTm in [1] (filed as modulator) is 0.5 °C.
In the case of `Clc1ccc(C(c2ccccc2)N2CCNCC2)cc1` (centres undefined), in [1], the ΔTm is -2.3 °C. Further, the results for the fold change (FC) in assay [2] and in [3] were 0.37 and 0.57, respectively.
As to `O=C1Nc2ccccc2Nc2ccccc21`, the ΔTm in assay [1] amounted to 0.6 °C. Also, the fold change (FC) in [2] is 0.47; in [10], 1.12.
What is called Kd is the constant that tells how readily two partners part at equilibrium. Low values mean a tighter complex, high ones a looser complex. On to `CC(C)NCC(O)COc1cccc2ccccc12` (racemic) [PROPRANOLOL], for which the result in the assay on T98G [14], in the assay on T98G [15], in the assay with T98G [16], with T98G [17] and in the assay on T98G [8] was Active. Also, in the assay on T98G [5], the outcome was inactive. The EC50 was determined as 32 µM in [11] (read-out: EC50), 37 µM in assay [12] and 32 µM in assay [20]. In addition, in assay [18], the dissociation constant (Kd) was determined as 0.5 µM. Also, the Activity in assay [19] came out at 8%. Further, the fold change (FC) in assay [13] worked out at 0.08. The “cell migration inhibition (active/not active call)” value in the assay with T98G [7] is “Active”.
